Assay results from publication PMC10093212, “Development of Cyclic Peptides Targeting the Epidermal Growth Factor Receptor in Mesenchymal Triple-Negative Breast Cancer Subtype” (Cells, 2023).
Bridge positions count the residues as written; N and C are the ends. Ends that are not written are not given here.

What was measured:
[1] = tested on: wild-type MDA-MB-231 cells; assay: Flow cytometry binding of FITC-conjugated phages; type: cell-based, human; conditions: phage displaying the peptide; compared to 04cys_EGFR and 30cys_EGFR phages
Source text: Phages expressing peptide sequences (01cys_EGFR, 04cys_EGFR, 06cys_EGFR, and 30cys_EGFR) and a wild-type M13 phage were conjugated to fluorescein isothiocyanate (FITC) in order to analyze their binding affinity to EGFR on MDA-MB-231 by flow cytometry. The “Pierce FITC Antibody Labeling Kit” (cat #53027—Thermo Fisher Scientific) was used for the conjugation following the manufacturer’s instructions.
(§1) We analyzed the binding of FITC-conjugated phages on MDA-MB231 cells by flow cytometry. A binding assay was also performed with FITC-conjugated peptides to human MDA-MB-231 and BT-549 cells, murine 4T1 cells, and additional EGFR-positive thyroid cancer cell lines K1 and Cal62. To increase the stringency conditions of in vitro binding, adherent cells were incubated with 10 μg/mL of 01cys_EGFR and 06_cys EGFR for 45 min in the dark at 37 °C instead of 4 °C of the standard protocol. Cells were recovered by a cell scraper, then twice washed with PBS and suspended in 300 μL of BD™ FACSFlow™ fluid. Data were acquired on the BD FACSCanto™ II and analyzed with FlowJo software (Becton Dickinson, San Jose, CA, USA).
The binding ability of phages 01cys_EGFR, 04cys_EGFR, 06cys_EGFR, and 30cys_EGFR to the MDA-MB-231 cells were analyzed by flow cytometry. To this end, the phages were conjugated with fluorescein isothiocyanate (FITC) and incubated with wild-type MDA-MB-231 or MDA-MB-231 EGFR- KO cells. […]

BT549 cells = assay: Cell cycle analysis by propidium iodide flow cytometry; type: cell-based, human; conditions: 24 h; for mitogenic activity through the binding to the EGFR: 25 μM, BT549; for cells in G1 phase / cells in G2 phase / cells in S phase: free peptide 25 μM, after 18 h serum starvation, 0.2% FBS, PI staining, two experiments
Description: BT549 cells (200,000 cells/well) were seeded onto a 6-well plate in RPMI-1640 complete medium. After adhesion, cells were starved in serum-free RPMI-1640 for 18 h, and then the medium was changed to RPMI-1640 supplemented with 0.2% FBS in the presence or absence of control, 01cys_EGFR and 06_cys EGFR peptides (25 μM). After 24 h of peptide stimulation, cells were trypsinized, washed, and suspended in PBS. Cells were fixed with 1 mL of ice-cold 70% ethanol and incubated for 30 min at 4 °C. Fixed cells were washed three times and stained with 50 μg/mL of propidium iodide and 40 μg/mL of RNAse A. Cell cycle profile was acquired by FACS Canto II and analyzed by Flow Jo software 8.8.6 (Becton Dickinson).
Next, we tested whether the peptides 01cys_EGFR and 06cys_EGFR could affect the cell cycle through the binding to EGFR. To this end, BT549 cells were serum starved for 18h to induce synchronization and then treated with 01cys_EGFR, 06cys_EGFR, and the irrelevant control peptides (25 μM) or left untreated for 24 h. Proliferating cells were stained with propidium iodide to analyze cell cycle distribution by flow cytometry (Figure 7A). The cells treated with 01cys_EGFR, 06cys_EGFR, and control peptides were distributed ~26% in G1, ~64% in S, and ~10% in the G2 phase, which was a similar behavior to unstimulated cells (Figure 7B).
Figure 7 (A) The proportion of BT549 cells untreated or treated with 25 μM of control, 01cys_EGFR, and 06cys_EGFR peptides in G1, S, and G2 phases were determined by flow cytometry and quantified by Flow Jo software using Watson Pragmatic method. […] Data are collected from two different experiments and presented as means ± SD. Paired t-test indicates no statistical significance between peptide-stimulated and unstimulated cells.

[2] = tested on: MDA-MB-231 EGFR KO xenograft; assay: Confocal immunofluorescence of tumor xenograft tissue sections with FITC-peptides; design: species or system human; conditions: MDA-MB-231 EGFR KO xenograft sections, FITC-peptide 10 μg/mL, 45 min, 37 °C; confocal microscopy
Description: (§2) OCT-embedded MDA-MB-231 xenograft tissue samples derived from Balb/c nude mice were cut in 8–10 µm sections and mounted onto microscope slides for confocal microscopy analysis. Sections were fixed with 4% paraformaldehyde for 30 min at 4 °C, and then for 45 min, incubated at 4 °C with rabbit polyclonal anti-EGFR (1:100 dilution -Bethyl Laboratories, Inc., Montgomery, TX, USA) followed by Alexa Fluor 568-labeled anti-rabbit secondary antibody (1:500 dilution; Thermo Fisher Scientific). After washing, cells were incubated in the dark with FITC-conjugated peptides (Control, 01_cysEGFR, 06_cysEGFR) (10 μg/mL) for 45 min at 37 °C, anti-Wheat Germ Agglutinin (WGA) Alexa Fluor 647 conjugate (1:200 dilution; Thermo Fisher Scientific) for 45 min, and finally with DAPI at the dilution 1:500 for 10 min. Cells were prepared with mounting medium (ProLong antifade, Thermo Fisher Scientific) and visualized by confocal microscopy (LEICA TCS SP8).
EGFR was detected in the MDA-MB-231 xenograft tissue sections by an anti-EGFR antibody as a red fluorescence signal, while it was undetected in MDA-MB-231 EGFR KO (Figure 6).

[3] = tested on: MDA-MB-231 xenograft tissue; assay: as above; design: species or system human; conditions: MDA-MB-231 xenograft tissue sections, FITC-peptide 10 μg/mL, 45 min, 37 °C; confocal microscopy
Description: as §2
Then, we asked whether the 01_cysEGFR and 06_cysEGFR peptides could be used for in vivo analysis of tumor tissues expressing EGFR. To this end, we generated MDA-MB-231 tumor xenograft in mice and performed confocal microscopy analysis of tumor tissue sections upon immunofluorescence staining with FITC-peptides (green signal) or anti-EGFR (red signal) (Figure 6). […]

[4] = tested on: thyroid cancer cell lines (Cal62 and K1); assay: Flow cytometry binding of FITC-peptides to EGFR-positive thyroid cancer cells; type: cell-based, human; conditions: Cal62 and K1, especially K1; 10uM FITC-peptide, 45 min; compared with 06cys_EGFR
Description: as §1
In order to evaluate the binding efficacy of our peptides in other EGFR-overexpressing cancer cell types, we choose two different thyroid cancer cell lines (Cal62 and K1).
Figure S3. Pe p t i d e binding assay in EGFR-positive thyroid cancer cells using ﬂow cytometry. Flow cytometric analysis showing EGFR-overexpressing thyroid cancer cell lines K1 and Cal62 unstained or stained with 10uM of FITC- conjugate peptides (control, 01_cysEGFR and 06cys_EGFR) for 45 […]

[5] = cited from earlier work
Source text: (§3) TNBC is the most aggressive form of breast cancer. There are different TNBC subtypes characterized by intratumor heterogeneity based on morphology, gene expression profile, and response to adjuvant chemotherapies. Unfortunately, TNBC is still lacking effective anticancer targets for clinical treatment. This justifies the urgency to explore new biomarkers and therapeutic strategies for improving the survival outcomes of TNBC patients. EGFR is a tyrosine kinase membrane receptor that contains in the extracellular region the docking site for the epidermal growth factor a ...

MDA-MB-468 cells = conditions: cited from earlier work
Source text: as §3

MDA-MB-231 cells = conditions: cited from earlier work
Source text: as §3

Sequence | binding of FITC-conjugated phage (percentage of fluorescence) [1] | mitogenic activity through the binding to the EGFR (BT549 cells) | cells in G1 phase (BT549 cells) | cells in G2 phase (BT549 cells) | cells in S phase (BT549 cells) | green fluorescence signal (FITC-peptide staining) [2] | green fluorescence signal (FITC-peptide staining) [3] | efficacy of binding to thyroid cancer cells [4] | serum stability [5] | uptake (MDA-MB-468 cells) | uptake (MDA-MB-231 cells)
CEKMVATHC (disulfide 1-9 (inferred)) [01cys_EGFR, Phage-display selected cyclic EGFR peptide ligand, one disulphide bond, amidated C-terminus] | higher efficiency | lacked mitogenic activity | ~ 26% | ~ 10% | ~ 64% | lack of fluorescence | stronger green fluorescence signal | higher efficacy of binding | – | – | –
CGGNGPGLC (disulfide 1-9 (inferred)) [irrelevant peptide, Irrelevant peptide synthesized as a negative control, reference compound] | – | – | ~ 26% | ~ 10% | ~ 64% | – | lack of green fluorescence signal | – | – | – | –
CPSDEHHTC (disulfide 1-9 (inferred)) [06cys_EGFR, Phage-display selected cyclic EGFR peptide ligand, one disulphide bond, amidated C-terminus] | higher efficiency | lacked mitogenic activity | ~ 26% | ~ 10% | ~ 64% | – | – | – | – | – | –
YHWYGYTPENVI [peptide 22] | – | – | – | – | – | – | – | – | low serum stability | highest uptake | highest uptake
